From publication PMC3460867, “MmPPOX Inhibits Mycobacterium tuberculosis Lipolytic Enzymes Belonging to the Hormone-Sensitive Lipase Family and Alters Mycobacterial Growth” (PLoS ONE, 2012)
Values after ≈ are worked out from the molar mass of the structure shown. Like-named read-outs stand apart in the source and are kept apart here.

Experiments:
LipH = type: biochemical; conditions: pNPC4
LipI = LipI (Mycobacterium tuberculosis, UniProt P71668); experiment: biochemical; type: biochemical; conditions: for x I50: inhibitor molar excess leading to 50% residual activity after 10 min incubation; for Residual activity (%) 10 min: 10 min incubation; for Residual activity (%) 30 min: 30 min incubation
LipN = experiment: Inhibition of recombinant LipN, pre-incubation method, residual activity on pNPC4; type: biochemical, M. tuberculosis; conditions: for Residual activity (%) 10 min / Residual activity (%) 30 min: pNPC4
LipU = LipU (Mycobacterium tuberculosis, UniProt O53424); experiment: biochemical; type: biochemical; conditions: for x I50: inhibitor molar excess leading to 50% residual activity after 10 min incubation
Cut6 = Cut6 (Mycobacterium tuberculosis, UniProt O53581); experiment: biochemical; type: biochemical; conditions: for x I50: inhibitor molar excess leading to 50% residual activity after 10 min incubation
[1] = test system: M. bovis BCG strain Pasteur 1173P2; experiment: microbe, parasite or virus in culture; type: cell-based; conditions: Mycobacterium tuberculosis variant bovis BCG
LipF = type: biochemical; conditions: for Residual activity (%) 10 min / Residual activity (%) 30 min: pNPC4
LipC = LipC (Mycobacterium tuberculosis, UniProt P96402); experiment: biochemical; type: biochemical; conditions: for x I50: inhibitor molar excess leading to 50% residual activity after 10 min incubation; for Residual activity (%) 10 min: 10 min incubation; for Residual activity (%) 30 min: 30 min incubation
[2] = test system: M. tuberculosis strain mc^27000; experiment: microbe, parasite or virus in culture; type: cell-based; conditions: Mycobacterium tuberculosis
LipW = type: biochemical; conditions: pNPC4
LipR = type: biochemical; conditions: pNPC4
LipY = molecular target: T1, LipY (Mycobacterium tuberculosis, UniProt I6Y2J4); experiment: biochemical; type: biochemical, M. tuberculosis; conditions: for Ki: Apparent K i
T1 sequence (I6Y2J4 1-437): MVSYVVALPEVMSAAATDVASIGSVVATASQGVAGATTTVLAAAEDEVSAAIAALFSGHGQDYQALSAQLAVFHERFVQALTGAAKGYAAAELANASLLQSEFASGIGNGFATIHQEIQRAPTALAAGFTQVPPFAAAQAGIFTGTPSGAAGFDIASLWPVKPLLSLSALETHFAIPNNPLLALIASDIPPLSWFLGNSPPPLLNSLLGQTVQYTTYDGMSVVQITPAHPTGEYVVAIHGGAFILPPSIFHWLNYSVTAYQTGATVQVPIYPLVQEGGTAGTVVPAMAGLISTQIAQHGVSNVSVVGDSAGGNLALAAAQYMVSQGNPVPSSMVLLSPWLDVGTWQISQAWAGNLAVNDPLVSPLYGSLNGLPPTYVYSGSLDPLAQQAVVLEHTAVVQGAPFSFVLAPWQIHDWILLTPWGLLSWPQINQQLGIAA

Lip-HSL enzymes = experiment: Inhibition of all Lip-HSL enzymes tested, pre-incubation method, residual activity on pNPC4 (statements for the family); type: biochemical
[3] = LipI, near stoichiometric proportions of inhibitor (x I<2)
[4] = near stoichiometric proportions of inhibitor (x I<2)
[5] = LipC, near stoichiometric proportions of inhibitor (x I<2)

Sequence of LipU (O53424 whole entry): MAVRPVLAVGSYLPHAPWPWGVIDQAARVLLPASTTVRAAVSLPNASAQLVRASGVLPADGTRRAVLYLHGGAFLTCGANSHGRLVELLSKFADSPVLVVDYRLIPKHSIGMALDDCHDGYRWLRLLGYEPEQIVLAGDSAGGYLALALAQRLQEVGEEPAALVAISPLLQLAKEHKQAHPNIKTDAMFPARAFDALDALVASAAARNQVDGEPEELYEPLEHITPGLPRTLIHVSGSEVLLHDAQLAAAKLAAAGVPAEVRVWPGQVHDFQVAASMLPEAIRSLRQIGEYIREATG
Sequence of LipC (P96402 whole entry): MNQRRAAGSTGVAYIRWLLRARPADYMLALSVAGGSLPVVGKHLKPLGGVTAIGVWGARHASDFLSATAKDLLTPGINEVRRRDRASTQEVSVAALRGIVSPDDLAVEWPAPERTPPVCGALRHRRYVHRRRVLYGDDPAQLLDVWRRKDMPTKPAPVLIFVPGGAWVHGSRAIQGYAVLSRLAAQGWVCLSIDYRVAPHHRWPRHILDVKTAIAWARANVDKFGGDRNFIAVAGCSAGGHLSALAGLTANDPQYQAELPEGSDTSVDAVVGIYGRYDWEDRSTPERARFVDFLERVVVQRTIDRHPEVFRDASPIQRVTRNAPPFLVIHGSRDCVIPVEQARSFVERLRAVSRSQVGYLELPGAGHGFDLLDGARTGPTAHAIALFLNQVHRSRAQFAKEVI
Sequence of LipI (P71668 whole entry): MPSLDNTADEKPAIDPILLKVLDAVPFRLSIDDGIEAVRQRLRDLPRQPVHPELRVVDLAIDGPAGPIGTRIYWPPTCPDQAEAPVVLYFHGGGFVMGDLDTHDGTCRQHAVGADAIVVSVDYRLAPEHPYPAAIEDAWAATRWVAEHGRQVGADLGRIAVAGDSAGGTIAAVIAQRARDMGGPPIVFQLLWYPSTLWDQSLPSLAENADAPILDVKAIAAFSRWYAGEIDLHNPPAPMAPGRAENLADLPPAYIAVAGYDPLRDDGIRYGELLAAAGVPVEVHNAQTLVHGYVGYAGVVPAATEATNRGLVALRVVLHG
Sequence of Cut6 (O53581 44-336): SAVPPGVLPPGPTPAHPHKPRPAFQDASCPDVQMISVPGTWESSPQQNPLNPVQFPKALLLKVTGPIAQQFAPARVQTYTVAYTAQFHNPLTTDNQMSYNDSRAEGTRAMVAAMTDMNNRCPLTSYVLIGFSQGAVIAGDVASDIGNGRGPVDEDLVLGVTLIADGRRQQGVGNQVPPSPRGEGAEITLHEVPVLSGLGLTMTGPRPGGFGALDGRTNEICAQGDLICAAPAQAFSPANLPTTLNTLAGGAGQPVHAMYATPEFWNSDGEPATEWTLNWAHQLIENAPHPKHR

COc1nn(-c2cccc(Oc3ccccc3)c2)c(=O)o1 [MmPPOX, 5-methoxy-N-3-(meta-phenoxyphenyl)-1,3,4-oxadiazol-2(3H)-one]
Residual activity (%) 10 min (LipH; x I = 5, 10 min incubation): 9%
Residual activity (%) 30 min (LipH; x I = 5, 30 min incubation): 9%
Residual activity (%) 10 min (LipH; x I = 10, 10 min incubation): 0%
Residual activity (%) 30 min (LipH; x I = 10, 30 min incubation): 0%
Ki (LipI): 0.1 µM
x I50 ratio (LipI; LipI, calculated as x I50 (THL)/x I50 (MmPPOX)): 131.8
x I50 (LipI; LipI, pNPC4): 0.5
Half inactivation time (t1/2) (LipI; [3]): < 1 min
Remaining activities (LipI; [3]): < 10%
Residual activity (%) 10 min (LipI; LipI, x I = 1, pNPC4): 7%
Residual activity (%) 30 min (LipI; LipI, x I = 1, pNPC4): 6%
Residual activity (%) 10 min (LipI; LipI, x I = 2, pNPC4): 0%
Residual activity (%) 30 min (LipI; LipI, x I = 2, pNPC4): 0%
Half inactivation time (t1/2) (LipN; [4]): < 1 min
Remaining activities (LipN; [4]): < 10%
Residual activity (%) 10 min (LipN; x I = 2, 10 min incubation): 6%
Residual activity (%) 30 min (LipN; x I = 2, 30 min incubation): 6%
Residual activity (%) 10 min (LipN; x I = 5, 10 min incubation): 0%
Residual activity (%) 30 min (LipN; x I = 5, 30 min incubation): 0%
Ki (LipU; Apparent K i, pNPC4): 5.1 µM
x I50 ratio (LipU; calculated as x I50 (THL)/x I50 (MmPPOX)): >333
x I50 (LipU; pNPC4): 1.5
Residual activity (%) 10 min (LipU; x I = 20, 10 min incubation, pNPC4): 10%
Residual activity (%) 30 min (LipU; x I = 20, 30 min incubation, pNPC4): 17%
Ki (Cut6; Apparent K i, Cut6, pNPC4): > 1000 µM
Ki (Cut6; Apparent K i, Cut6, pNPC4, value of the text): 6400 µM
x I50 ratio (Cut6; Cut6, calculated as x I50 (THL)/x I50 (MmPPOX)): <0.1
x I50 (Cut6; Cut6, pNPC4): 227.9
Activity in the presence of inhibitor (Cut6; Cut6, x I = 20): retained full activity
Residual activity (%) 10 min (Cut6; Cut6, x I = 20, 10 min incubation, pNPC4): 100%
Residual activity (%) 30 min (Cut6; Cut6, x I = 20, 30 min incubation, pNPC4): 100%
Apparent K i for Cut6 relative to those of Lip-HSL proteins (times higher) (Cut6; Cut6 vs Lip-HSL proteins): about 1000
MIC [1]: 10 to 20 µg/mL (≈ 35.2 to 70.4 µM)
Half inactivation time (t1/2) (LipF; [4]): < 1 min
Remaining activities (LipF; [4]): < 10%
Residual activity (%) 10 min (LipF; x I = 1, 10 min incubation): 7%
Residual activity (%) 30 min (LipF; x I = 1, 30 min incubation): 11%
Residual activity (%) 10 min (LipF; x I = 2, 10 min incubation): 0%
Residual activity (%) 30 min (LipF; x I = 2, 30 min incubation): 0%
Ki (LipC): 1 µM
x I50 ratio (LipC; LipC, calculated as x I50 (THL)/x I50 (MmPPOX)): >10^3
x I50 (LipC; LipC, pNPC4): 0.5
Half inactivation time (t1/2) (LipC; [5]): < 1 min
Remaining activities (LipC; [5]): < 10%
Residual activity (%) 10 min (LipC; LipC, x I = 2, pNPC4): 7%
Residual activity (%) 30 min (LipC; LipC, x I = 2, pNPC4): 5%
Residual activity (%) 10 min (LipC; LipC, x I = 5, pNPC4): 0%
Residual activity (%) 30 min (LipC; LipC, x I = 5, pNPC4): 0%
MIC [2]: ~25 µg/mL (≈ 87.9 µM)
Residual activity (%) 10 min (LipW; x I = 20, 10 min incubation): 6%
Residual activity (%) 30 min (LipW; x I = 20, 30 min incubation): 13%
Residual activity (%) 10 min (LipR; x I = 20, 10 min incubation): 7%
Residual activity (%) 30 min (LipR; x I = 20, 30 min incubation): 15%
Residual activity (%) 10 min (LipY): 5%
Residual activity (%) 30 min (LipY): 5%
x I50 ratio (LipY): 0.4
Ki (LipY): 7.7 µM
Activity restoration: increase of residual activity after 30 min as compared to 10 min (Lip-HSL enzymes; LipF, LipR, LipU and LipW): 4–8%
Half inactivation time (t1/2) (Lip-HSL enzymes; all Lip-HSL enzymes tested, x I = 20): < 1 min
Remaining activities (Lip-HSL enzymes; all Lip-HSL enzymes tested, x I = 20, 10 min incubation, pNPC4): less than 15%

CCCCCCCCCCC[C@@H](C[C@@H]1OC(=O)[C@H]1CCCCCC)OC(=O)[C@H](CC(C)C)NC=O [THL, Tetrahydrolipstatin]
x I50 (LipI; LipI, pNPC4): 65.9
Ki (LipI; LipI, pNPC4, read-out: Apparent K i): 13.1 µM
x I50 (LipU; pNPC4): >500
Ki (LipU; pNPC4, read-out: Apparent K i): > 1000 µM
x I50 (Cut6; Cut6, pNPC4): 9.7
Ki (Cut6; Cut6, pNPC4, read-out: Apparent K i): 142 µM
MIC [1]: 7.5 µg/mL (≈ 15.1 µM)
x I50 (LipC; LipC, pNPC4): >500
Ki (LipC; LipC, pNPC4, read-out: Apparent K i): > 1000 µM
MIC [2]: 20 µg/mL (≈ 40.3 µM)
Ki (LipY): 3.2 µM
